System: T1, OsAPSE
T1 construct: GH27 42-387, ricin-B-like 498-563, GH-all-beta 563-649; catalytic D226, D282
Test: discontinuous pNP release assay, A405; Hanes-Woolf and Eadie-Hofstee
Type: biochemical, Oryza sativa subsp. japonica
Settings: 50 mM Tris-HCl pH 8, 25 °C; 50 µg/mL enzyme; protein refolded from inclusion bodies (authors suspect suboptimal folding); 1-20 mM substrate, Km extrapolated above tested range

`O=[N+]([O-])c1ccc(O[C@H]2O[C@H](CO)[C@H](O)[C@H](O)[C@H]2O)cc1` [pNP-α-D-Galp] was tested. Which Km did it give?
Its Km is 44 mM.
